From ChEMBL document CHEMBL4651402, “Screening of ~5500 FDA-approved drugs and clinical candidates for anti-SARS-CoV-2 activity” (2021)

Tested on: SARS-CoV-2
Assay: microbe, parasite or virus in culture
Details: Severe acute respiratory syndrome coronavirus 2, Vero C1008, 48 h

SMILES	IC50 [µM]	IC50 (read-out: pIC50 (converted)) [µM]
CNCC(O)c1cccc(O)c1 (centres undefined)	> 20	> 20
COc1cc(N)c(Cl)cc1C(=O)NC1CCN(Cc2ccccc2)CC1 [CLEBOPRIDE]	> 20	> 20
COc1c2occc2cc2ccc(=O)oc12 [METHOXSALEN]	> 20	> 20
C=CC(=O)Nc1cccc(Nc2nc(Nc3ccc(N4CCN(C(C)=O)CC4)cc3OC)ncc2C(F)(F)F)c1 [ROCILETINIB]	> 20	> 20
CCn1ccnc1CC1COc2ccccc2O1 (centres undefined) [IMILOXAN]	> 20	> 20
CC(C)n1c(/C=C/[C@@H](O)C[C@@H](O)CC(=O)O)c(-c2ccc(F)cc2)c2ccccc21.CC(C)n1c(/C=C/[C@H](O)C[C@H](O)CC(=O)O)c(-c2ccc(F)cc2)c2ccccc21	> 20	> 20
Cc1scc2c1N(C(=O)CN1CCN(C)CC1)c1ccccc1NC2=O [TELENZEPINE]	> 20	> 20
CC1CCc2c(N3CCC(O)CC3)c(F)cc3c(=O)c(C(=O)O)cn1c23 (centres undefined) [NADIFLOXACIN]	> 20	> 20
O=C(O)c1ccc(CN2CC3CC2CN3Cc2ccc(Oc3ccc(-c4ncco4)cc3)cc2)cc1 (centres undefined)	> 20	> 20
CCCCC1=NC2(CCCC2)C(=O)N1Cc1ccc(-c2ccccc2-c2nnn[nH]2)cc1 [IRBESARTAN]	> 20	> 20
CCC(CC)[C@H](c1ccc(Nc2nc3ccccc3s2)cc1)n1cncn1	> 20	> 20
CCc1cccc(CC)c1NC(=O)CN(CC(=O)O)CC(=O)O [ETIFENIN]	> 20	> 20
CC(C)(O)C(=O)Nc1ccc([N+](=O)[O-])c(C(F)(F)F)c1 [HYDROXYFLUTAMIDE]	> 20	> 20
NCC(O)c1ccc(O)cc1 (centres undefined) [OCTOPAMINE]	> 20	> 20
CN1CCc2c(c3ccccc3n2Cc2ccccc2)C1 [MEBHYDROLIN]	> 20	> 20
C[C@H]1[C@H](NC(=O)/C(=N\OC(C)(C)C(=O)O)c2csc(N)n2)C(=O)N1S(=O)(=O)O [AZTREONAM]	> 20	> 20
COc1ccc(C(=O)NCc2ccc(OCCN(C)C)cc2)cc1OC [ITOPRIDE]	> 20	> 20
CCC1(c2ccccc2)C(=O)NCNC1=O [PRIMIDONE]	> 20	> 20
COc1cc(C(=O)NC2CCCNC2)cc(OC)c1OC (centres undefined) [TROXIPIDE]	> 20	> 20
CC1=C(/C=C/C(C)=C/C=C/C(C)=C/C(=O)O)C(C)(C)CCC1 [TRETINOIN]	> 20	> 20
CN1CCC[C@@H]1Cc1c[nH]c2ccc(CCS(=O)(=O)c3ccccc3)cc12	> 20	> 20

SMILES	IC50 [µM]	IC50 (read-out: pIC50 (converted)) [µM]
Cc1noc(-c2ccc(-c3ccc(C4(C(=O)O)CC4)cc3)cc2)c1NC(=O)O[C@@H](C)c1ccccc1	> 20	> 20
FC(F)(F)c1cccc(C2=CCN(CCc3ccc4ccccc4c3)CC2)c1 [XALIPRODEN]	> 20	> 20
C[N+]1(CC2CC2)CC[C@]23c4c5ccc(O)c4O[C@H]2C(=O)CC[C@@]3(O)[C@H]1C5 (some centres undefined) [METHYLNALTREXONE]	> 20	> 20
O=C(O)CC[C@H]1CC[C@](c2cc(F)ccc2F)(S(=O)(=O)c2ccc(Cl)cc2)CC1	> 20	> 20
O=C1NS(=O)(=O)c2ccccc21 [SACCHARIN]	> 20	> 20
COC(=S)NCCn1c([N+](=O)[O-])cnc1C [CARNIDAZOLE]	> 20	> 20
O=C1c2ccccc2C(=O)C1c1ccc(F)cc1 [FLUINDIONE]	> 20	> 20
CCOC(=O)Nc1ccc(SCC2CO[C@](Cn3ccnc3)(c3ccc(Cl)cc3Cl)O2)cc1 (some centres undefined)	> 20	> 20
CO[C@H]1C[C@@H]2CC[C@@H](C)[C@@](O)(O2)C(=O)C(=O)N2CCCC[C@H]2C(=O)O[C@H]([C@H](C)C[C@@H]2CC[C@H](n3cnnn3)[C@H](OC)C2)CC(=O)[C@H](C)/C=C(/C)[C@@H](O)[C@@H](OC)C(=O)[C@H](C)C[C@H](C)\C=C/C=C\C=C/1C	> 20	> 20
O=C(/C=C/c1cccc(S(=O)(=O)Nc2ccccc2)c1)NO [BELINOSTAT]	> 20	> 20
CO[C@H]1C=C2CCN(C)[C@H]2C2c3cc4c(cc3C(=O)O[C@@H]21)OCO4 (some centres undefined)	> 20	> 20
CC(C)(C)C(=O)C(Oc1ccc(Cl)cc1)n1cncn1 (centres undefined) [TRIADIMEFON]	> 20	> 20
COC(=O)c1cnc2n1CCc1ccccc1C2=C1CCN(CCc2ccc(OCc3ccc4ccccc4n3)cc2)CC1	> 20	> 20
CC(=O)C1CCC2C3CCC4=CC(=O)CCC4C3CCC12C (centres undefined)	> 20	> 20
CCCCCc1ccc(C)cc1O [AMYLMETACRESOL]	> 20	> 20
CCC(=O)OC(OP(=O)(CCCCc1ccccc1)CC(=O)N1C[C@H](C2CCCCC2)C[C@H]1C(=O)O)C(C)C (some centres undefined)	> 20	> 20
Cc1c(-c2cccnc2)n(CCCCCCCC(=O)O)c2ccccc12	> 20	> 20
N=C(N)Nc1ccc(C(=O)Oc2ccc3c(c2)OC[C@H]3CC(=O)N[C@@H](CC(=O)O)C(=O)O)cc1	> 20	> 20
CN(C)CC/C=C1/c2ccccc2COc2ccc(CC(=O)O)cc21 [OLOPATADINE]	> 20	> 20
O=c1c(-c2ccccc2)c1-c1ccccc1 [DIPHENCYPRONE]	> 20	> 20
CCCOc1ccccc1-c1nc2[nH]nnc2c(=O)[nH]1 [ZAPRINAST]	> 20	> 20

SMILES	IC50 [µM]	IC50 (read-out: pIC50 (converted)) [µM]
CC(C)=CC[C@@H](O)C1=CC(=O)c2c(O)ccc(O)c2C1=O [SHIKONIN]	> 20	> 20
O=C(c1ccccc1)c1ccccc1 [BENZOPHENONE]	> 20	> 20
COc1cc(NC(=O)Nc2cccc(CNC(=O)O[C@H]3CCOC3)c2)ccc1-c1cnco1 [MERIMEPODIB]	> 20	> 20
CC(=O)O[C@@H]1C[C@H]2C(C)(C)C(=O)C=C[C@]2(C)[C@H]2CC[C@@]3(C)[C@H](c4ccoc4)OC(=O)[C@H]4O[C@]43[C@@]21C [GEDUNIN]	> 20	> 20
CCN(CC)CC(C)(C)COC(=O)c1ccc(N)cc1	> 20	> 20
Cc1c(O)c(=O)ccn1C [DEFERIPRONE]	> 20	> 20
CC(=O)OC1CC2CCC3C(CCC4(C)C3CC(N3CC[N+](C)(C)CC3)C4OC(C)=O)C2(C)CC1N1CC[N+](C)(C)CC1 (centres undefined)	> 20	> 20
CCCc1nn(C)c2c(=O)[nH]c(-c3cc(S(=O)(=O)N4CCN(C)CC4)ccc3OCC)nc12	> 20	> 20
Cn1c(=O)cc(N2CCC[C@@H](N)C2)n(Cc2cc(F)ccc2C#N)c1=O [TRELAGLIPTIN]	> 20	> 20
O=C(O)CCCC[C@H]1SC[C@H]2NC(=O)N[C@H]21	> 20	> 20
Cc1ncc(CSSCc2cnc(C)c(O)c2CO)c(CO)c1O [PYRITINOL]	> 20	> 20
c1ccc(N2CCN(Cc3nc4ccccc4[nH]3)CC2)nc1 [ABT-724]	> 20	> 20
C=CC(=O)N1CC[C@H](n2nc(C#Cc3cc(OC)cc(OC)c3)c3c(N)ncnc32)C1 [FUTIBATINIB]	> 20	> 20
C[C@@]1(c2nc3cccc(C(N)=O)c3[nH]2)CCCN1	> 20	> 20
CCCCN/C(=N\CC)NC(=N)N [ETOFORMIN]	> 20	> 20
CC1(C)S[C@@H]2[C@H](NC(=O)C3(N)CCCCC3)C(=O)N2[C@H]1C(=O)O [CYCLACILLIN]	> 20	> 20
OC(CCN1CCCCC1)(c1ccccc1)C1CCCCC1 (centres undefined) [TRIHEXYPHENIDYL]	> 20	> 20
C=CC[C@]1(O)CC[C@H]2[C@@H]3CCC4=CCCC[C@@H]4[C@H]3CC[C@@]21C [ALLYLESTRENOL]	> 20	> 20
Cc1cccc(N(C)C(=S)Oc2ccc3ccccc3c2)c1 [TOLNAFTATE]	> 20	> 20
OCC(O)COc1ccc(Cl)cc1 (centres undefined)	> 20	> 20
